Data published in US8298991B2, “Method for controlling undesired mimosoideae vegetation” (E I du Pont de Nemours and Company, priority 2008, dated 2012).

Columns and labels:
[1] = tested on: huisache (Acacia farnesiana); test: Test A: field study, control of a natural stand of huisache; format: in vivo; conditions: for % Defoliation 62 DAA: 62 days after application, vs control plot, foliar spray with 1% methylated seed oil, g ai/ha: Compound 1 250, fosamine-ammonium 6688, imazapyr (a.e.) 280, metsulfuron-methyl 42, alone or combined; for % Control 229 DAA: 229 days after application; for % Control 229 DAA / % Control 543 DAA / % Control 656 DAA / % Control 745 DAA: % of trees with no green foliage or regrowth, g ai/ha: Compound 1 250, fosamine-ammonium 6688, imazapyr 280, metsulfuron-methyl 42; for % Control 543 DAA: 543 days after application; for % Control 656 DAA: 656 days after application; for % Control 745 DAA: 745 days after application
Procedure: A field study was conducted to evaluate the efficacy of 250 g/ha of Compound 1, 6.7 kg/ha of fosamine-ammonium (i.e. ammonium salt of fosamine), 280 g/ha of imazapyr (provided in the form of the isopropylammonium salt of imazapyr) and 42 g/ha of metsulfuron-methyl, separately and in combination, for controlling a natural stand of huisache (Acacia farnesiana) on a ranch in southeastern Texas. Compound 1 was in the form of a wettable granule formulation containing 80% by weight of Compound 1. Fosamine-ammonium was provided by KRENITE® S, which is a water-soluble liquid formulation containing 41.5% of fosamine-ammonium. Imazapyr was provided by ARSENAL®, which is a water-soluble liquid formulation containing 28.7% of imazapyr-isopropylammonium (equivalent to 22.6% of imazapyr, i.e. imazapyr acid equivalent). Metsulfuron-methyl was provided by ESCORT® XP, which is a wettable granule formulation containing 60% of metsulfuron-methyl.
The trial design was a large block, single replicate field study using rectangular test plots measuring 12.8 m by 22.9 m. The huisache trees in the test plots averaged 2.4 m tall and were estimated to be approximately 20 years old. The formulated herbicides were diluted with water and 1% by volume of methylated seed oil was added to provide about 27.4 L of spray mixture. The treatments were applied in early autumn using a high-volume handgun sprayer projecting the spray mixture upward and across a plot in a slow back and forth motion while traversing the plot lengthwise. This produced a rainfall-like spray covering both the huisache trees and ground between trees in the plots. The volume of spray mixture used (corresponding to 935 L/ha) was sufficient to thoroughly wet the foliage of the huisache trees with relatively little drip or run off under the trees.
The effects of the herbicide treatments were visually evaluated. At 62 days after application (DAA), the percentage of defoliation in comparison to a control plot was observed. Then at 229, 543, 656 and 745 days after application % control was calculated based on the percentage of trees showing no green foliage or regrowth.

[2] = tested on: honey mesquite (Prosopis glandulosa); test: Test B: field study, control of natural stands of honey mesquite; format: in vivo; conditions: for % Control Site 1 Observed: Site 1, 12 months after application, 94 L/ha; for % Control Site 1 Observed / % Control Site 2 Observed: % dead trees, g ai/ha: Compound 1 125, triclopyr (a.e., as butotyl ester) 280; for % Control Site 2 Observed: Site 2, 10 months after application, 140 L/ha
Procedure: A field study was conducted to evaluate the efficacy of 125 g/ha of Compound 1 and 280 g/ha of triclopyr (in the form of the butoxyethyl ester of triclopyr, i.e. triclopyr-butotyl), separately and in combination, for controlling natural stands of honey mesquite (Prosopis glandulosa) on ranches in western Texas. Compound 1 was in the form of an 80% wettable granule formulation. Triclopyr was provided by GARLON® 4 or REMEDY®, which are emulsifiable concentrate formulations containing 44.3% or 61.6% of triclopyr-butotyl, respectively.
The trial design was a large block, single replicate test. Each test used rectangular test plots measuring 3 m by 9 m and incorporating at least 10 mesquite plants per plot. The formulated herbicides were diluted with water, and 1% by volume of methylated seed oil was added, to provide volumes of spray mixtures corresponding to a rate of 94 L/ha at Site 1 and 140 L/ha at Site 2. The treatments were applied using flat fan nozzles on an elevated spray boom moved across the plots by an all-terrain vehicle or small tractor. The elevated spray boom and relatively low spray volumes simulated aerial (e.g., helicopter or fixed wing aircraft) applications.
In each plot 10 mesquite trees were identified with a metal tag for evaluation. The effects of the herbicide treatments were evaluated 12 months after application at Site 1 and 10 months after application at Site 2. Visual evaluations were used to rate the herbicidal effect of the various treatments. A tree was considered alive if any foliage was present within the tree canopy area or if any new growth (i.e. sprouts) emerged from the base of the tree.
Expected results were calculated using the Colby Equation. Colby's equation (S. R. Colby, “Calculating Synergistic and Antagonistic Responses of Herbicide Combinations,” Weeds, 15(1), pp 20-22 (1967)) calculates the expected additive effect of herbicidal mixtures, and for two active ingredients is of the form: Pa+b=Pa+Pb−(PaPb/100) wherein • Pa+b is the percentage effect of the mixture expected from additive contribution of the individual components, • Pa is the observed percentage effect of the first active ingredient at the same use rate as in the mixture, and • Pb is the observed percentage effect of the second active ingredient at the same use rate as in the mixture.

SMILES	% Defoliation 62 DAA [1] [%]	% Control 229 DAA [1] [%]	% Control 543 DAA [1] [%]	% Control 656 DAA [1] [%]	% Control 745 DAA [1] [%]	% Control Site 1 Observed [2] [%]	% Control Site 2 Observed [2] [%]	long-term control of honey mesquite (text summary over Sites 1 and 2) ([2]; both sites, Compound 1 125 g/ha, triclopyr 280 g/ha) [%]
CC(C)C1(C)N=C(c2ncccc2C(=O)O)NC1=O (racemic) [Imazapyr, (±)-2-[4,5-dihydro-4-methyl-4-(1-methylethyl)-5-oxo-1H-imidazol-2-yl]-3-pyridinecarboxylic acid]	70	9	0	0	0			
COC(=O)c1nc(C2CC2)nc(N)c1Cl [Compound 1, methyl 6-amino-5-chloro-2-cyclopropyl-4-pyrimidine-carboxylate]	100	91			33	60	60	60
CCOP(=O)(O)C(N)=O [Fosamine, ethyl hydrogen (aminocarbonyl)phosphonate]	75	0	0	0	0			
COC(=O)c1ccccc1S(=O)(=O)NC(=O)Nc1nc(C)nc(OC)n1 [Metsulfuron-methyl, methyl 2-[[[[(4-methoxy-6-methyl-1,3,5-triazin-2-yl)amino]carbonyl]amino]sulfonyl]benzoate]	85	11	0	0	0			
O=C(O)COc1nc(Cl)c(Cl)cc1Cl [Triclopyr, [(3,5,6-trichloro-2-pyridyl)oxy]acetic acid]						0	30	
